We go through 23 compounds from patent US20140315901A1, “Arylpyrrolopyridine derived compounds as LRRK2 inhibitors” (H. Lundbeck A/S, priority 2013, published 2014).

SMILES strings stand for the structures.

For one experiment, the target named is T1, LRRK2 G2019S (Homo sapiens, UniProt Q5S007, G2019S).
T1 construct: purchased Invitrogen (Life Technologies Corporation)
As to the kind of experiment: LanthaScreen TR-FRET LRRK2 G2019S kinase activity assay. The class given is biochemical. As to conditions: 250 pM LRRK2 G2019S kinase (residues 970 to 2527), 1.3 mM ATP, 0.4 μM fluorescein-LRRKtide, 2 hours at 30° C.; logarithmic average. As to the method: (§1) LRRK2 kinase activity is measured using a LanthaScreen kinase activity assay available from Invitrogen (Life Technologies Corporation). The assay is a homogeneous time resolved-fluorescence resonance energy transfer (TR-FRET) assay that measures phosphorylation of a fluorescein-labelled peptide substrate (fluorescein-LRRKtide, fluorescein-[…]) (SEQ ID NO 1) as a result of LRRK2 kinase activity. The phosphorylated peptide is recognized by a terbium-labelled phospho-specific anti-LRRKtide antibody and, subsequently, the phosphorylated LRRKtide can be quantified by the extent of TR-FRET between the terbium donor and fluorescein acceptor.
(§2) The LRRK2 kinase is obtained from Invitrogen (Life Technologies Corporation) and comprises residues 970 to 2527 of the full length human wild-type LRRK2 kinase or a similar sequence with the G2019S mutation. As discussed above, this mutation increases the kinase activity relative to the wild-type. The kinase reactions are performed in a 20 μL volume in 384-well plates. The kinase reaction buffer consists of 50 mM Tris pH 8.5, 0.01% BRIJ-35, 10 mM MgCl2, 1 mM EGTA, and 2 mM DTT.
(§3) In the assay, 1 nM LRRK2 WT or 250 pM LRRK2 G2019S kinase is incubated with the test compound (typically at 0 to 30 μM) for 30 minutes before the kinase reaction is initiated by addition of 1.3 mM ATP and 0.4 μM fluorescein-LRRKtide. The reaction mixture (20 μl total volume) is incubated for 2 hours at 30° C. before the reaction is terminated by addition of 10 mM EDTA and 1 nM terbium-labelled anti-phospho-LRRKtide antibody (final volume […]). The mixture is further incubated for 30 minutes at RT. TR-FRET is measured by excitation of the terbium-donor with 340 nm light and subsequent (delay time 100 μs) measurement of terbium and fluorescein emission at 495 nm and 520 nm, respectively, over a time window of 1000 μs. The measurement is repeated 10 times for fluorescein and 10 times for terbium emission with a 2000 μs time window between repeats. TR-FRET measurements are performed on a Biomek Synergy plate. The TR-FRET signal is calculated as the emission-ratio at 520 nm over […].
(§4) Test compound potency (IC50) was estimated by nonlinear regression using the sigmoidal dose-response (variable slope) using Xlfit 4 (IDBS, Guildford, Surrey, UK, model 205). y=(A+((B−A)/(1+((C/x)̂D)))), where y is the normalized TR-TRET ratio measurement for a given concentration of test compound, x is the concentration of test compound, A is the estimated efficacy (% inhibition) at infinite compound dilution, and B is the maximal efficacy (% inhibition). C is the IC50 value and D is the Hill slope coefficient. IC50 estimates were obtained from independent experiment and the logarithmic average was calculated.
(In general: In TR-FRET formats the signal depends on donor and acceptor labels being close together.)

The target of a further experiment is T2, LRRK2 WT (Homo sapiens, UniProt Q5S007).
T2 construct: comprises residues 970 to 2527 of the full length human wild-type LRRK2 kinase; purchased Invitrogen (Life Technologies Corporation)
T2 sequence (Q5S007 970-2527): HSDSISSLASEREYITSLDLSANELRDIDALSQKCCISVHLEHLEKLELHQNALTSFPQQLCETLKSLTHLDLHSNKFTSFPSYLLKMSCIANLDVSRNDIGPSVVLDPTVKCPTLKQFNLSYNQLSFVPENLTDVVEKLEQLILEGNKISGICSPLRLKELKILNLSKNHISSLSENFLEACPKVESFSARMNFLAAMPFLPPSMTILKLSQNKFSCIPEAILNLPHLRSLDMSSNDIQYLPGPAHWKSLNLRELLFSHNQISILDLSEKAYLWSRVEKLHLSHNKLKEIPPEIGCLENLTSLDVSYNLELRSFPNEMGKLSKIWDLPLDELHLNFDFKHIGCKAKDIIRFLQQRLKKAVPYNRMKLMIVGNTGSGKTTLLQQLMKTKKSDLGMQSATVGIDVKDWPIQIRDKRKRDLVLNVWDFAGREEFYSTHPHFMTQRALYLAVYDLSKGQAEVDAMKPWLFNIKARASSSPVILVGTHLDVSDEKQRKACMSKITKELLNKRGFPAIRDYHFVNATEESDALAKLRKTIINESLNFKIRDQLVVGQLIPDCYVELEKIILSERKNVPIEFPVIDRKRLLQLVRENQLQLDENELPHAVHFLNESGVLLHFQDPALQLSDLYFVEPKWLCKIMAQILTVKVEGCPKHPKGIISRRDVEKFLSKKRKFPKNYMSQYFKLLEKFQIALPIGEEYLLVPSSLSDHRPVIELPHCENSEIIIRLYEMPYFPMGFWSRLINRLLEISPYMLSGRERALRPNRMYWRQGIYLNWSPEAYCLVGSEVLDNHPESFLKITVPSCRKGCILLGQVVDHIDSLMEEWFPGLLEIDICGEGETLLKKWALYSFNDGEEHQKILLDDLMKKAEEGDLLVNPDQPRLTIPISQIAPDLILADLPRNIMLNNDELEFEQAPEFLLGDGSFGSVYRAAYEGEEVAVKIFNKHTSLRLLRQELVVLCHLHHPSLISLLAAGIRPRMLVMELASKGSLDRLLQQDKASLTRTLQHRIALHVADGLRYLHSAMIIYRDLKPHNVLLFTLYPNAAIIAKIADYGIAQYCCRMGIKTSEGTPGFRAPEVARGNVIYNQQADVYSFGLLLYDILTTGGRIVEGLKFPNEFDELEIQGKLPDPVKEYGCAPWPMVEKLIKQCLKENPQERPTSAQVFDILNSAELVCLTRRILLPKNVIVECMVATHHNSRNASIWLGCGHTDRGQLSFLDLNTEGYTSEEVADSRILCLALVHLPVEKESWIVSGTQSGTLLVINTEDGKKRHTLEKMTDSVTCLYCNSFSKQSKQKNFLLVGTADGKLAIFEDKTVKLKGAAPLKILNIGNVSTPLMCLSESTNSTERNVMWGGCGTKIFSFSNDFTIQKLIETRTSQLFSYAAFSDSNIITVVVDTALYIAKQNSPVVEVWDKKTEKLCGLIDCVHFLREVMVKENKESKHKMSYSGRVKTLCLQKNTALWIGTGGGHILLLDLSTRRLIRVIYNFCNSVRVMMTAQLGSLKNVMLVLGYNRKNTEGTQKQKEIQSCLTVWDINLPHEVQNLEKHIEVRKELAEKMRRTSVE
As to the kind of experiment: LanthaScreen TR-FRET LRRK2 wild-type kinase activity assay. The settings on record: 1 nM LRRK2 WT kinase (residues 970 to 2527), 1.3 mM ATP, 0.4 μM fluorescein-LRRKtide, 2 hours at 30° C.; logarithmic average. It counts as biochemical. As to the method: as §1, §2, §3, §4

T1 sequence (Q5S007 970-2527 G2019S): as the sequence (Q5S007 970-2527) above, with G1050S counted along it

Usually IC50 stands for the concentration that gives 50% inhibition. For the compound `COc1cccc(-c2ccnc3[nH]cc(C#N)c23)c1` [Example 1, 4-(3-Methoxyphenyl)-1H-pyrrolo[2,3-b]pyridine-3-carbonitrile], the IC50 at LRRK2 G2019S came out at 201 nM; at LRRK2 WT, 247 nM.

Turning to `Cc1cccc(-c2ccnc3[nH]cc(C#N)c23)c1` [Example 2, 4-(3-Methylphenyl)-1H-pyrrolo[2,3-b]pyridine-3-carbonitrile], the IC50 on LRRK2 G2019S was 195 nM; on LRRK2 WT, 170 nM.

`CCc1cccc(-c2ccnc3[nH]cc(C#N)c23)c1` [Example 3, 4-(3-Ethylphenyl)-1H-pyrrolo[2,3-b]pyridine-3-carbonitrile]: the figures for the concentration for half-maximal inhibition (IC50) on LRRK2 G2019S and at LRRK2 WT were 252 nM and 266 nM, respectively.

Take `N#Cc1c[nH]c2nccc(-c3ccsc3)c12` [Example 4, 4-(Thiophen-3-yl)-1H-pyrrolo[2,3-b]pyridine-3-carbonitrile]: the figures for the IC50 at LRRK2 G2019S and at LRRK2 WT were 851 nM and 1280 nM, respectively.

As for `N#Cc1c[nH]c2nccc(-c3ccc(CN4CCOCC4)cc3)c12` [Example 5, 4-[4-(Morpholin-4-ylmethyl)phenyl]-1H-pyrrolo[2,3-b]pyridine-3-carbonitrile], the values for the IC50 at LRRK2 G2019S and at LRRK2 WT were 1310 nM and 5440 nM, respectively.

Take `N#Cc1c[nH]c2nccc(-c3ccn(CN4CCOCC4)c3)c12` [Example 6, 4-[1-(Morpholin-4-ylmethyl)pyrrol-3-yl]-1H-pyrrolo[2,3-b]pyridine-3-carbonitrile]: the half-inhibitory concentration (IC50) on LRRK2 G2019S is 650 nM; on LRRK2 WT, 3870 nM.

Regarding `Cc1cc(-c2ccnc3[nH]cc(C#N)c23)ccc1CN1CCOCC1` [Example 7, 4-[3-Methyl-4-(morpholin-4-ylmethyl)phenyl]-1H-pyrrolo[2,3-b]pyridine-3-carbonitrile], the half-inhibitory concentration (IC50) at LRRK2 G2019S was determined as 78 nM; on LRRK2 WT, 620 nM.

Turning to `Cc1cc(-c2ccnc3[nH]cc(C#N)c23)ccc1CN(C)C` [Example 8, 4-{4-[(Dimethylamino)methyl]-3-methylphenyl}-1H-pyrrolo[2,3-b]pyridine-3-carbonitrile], the IC50 on LRRK2 G2019S stood at 288 nM; on LRRK2 WT, 549 nM.

As to `CCc1cc(-c2ccnc3[nH]cc(C#N)c23)ccc1CN1CCOCC1` [Example 9, 4-[3-Ethyl-4-(morpholin-4-ylmethyl)phenyl]-1H-pyrrolo[2,3-b]pyridine-3-carbonitrile], the results for the concentration for half-maximal inhibition (IC50) at LRRK2 G2019S and at LRRK2 WT were 26 nM and 149 nM, respectively.

`COc1cc(-c2ccnc3[nH]cc(C#N)c23)ccc1CN1CCOCC1` [Example 10, 4-[3-Methoxy-4-(morpholin-4-ylmethyl)phenyl]-1H-pyrrolo[2,3-b]pyridine-3-carbonitrile]: the results for the IC50 at LRRK2 G2019S and on LRRK2 WT were 154 nM and 919 nM, respectively.

Turning to `N#Cc1c[nH]c2nc(N)cc(-c3ccccc3)c12` [Example 11, 6-Amino-4-phenyl-1H-pyrrolo[2,3-b]pyridine-3-carbonitrile], the values for the half-maximal inhibitory concentration (IC50) on LRRK2 G2019S and at LRRK2 WT were 240 nM and 216 nM, respectively.

In the case of `Cc1cccc(-c2cc(N)nc3[nH]cc(C#N)c23)c1` [Example 12, 6-Amino-4-(3-methylphenyl)-1H-pyrrolo[2,3-b]pyridine-3-carbonitrile], the 50% inhibitory concentration (IC50) at LRRK2 G2019S worked out at 17 nM; at LRRK2 WT, 15 nM.

Turning to `Cn1ccc(Nc2cc(-c3ccccc3)c3c(C#N)c[nH]c3n2)n1` [Example 13, 6-[(1-Methylpyrazol-3-yl)amino]-4-phenyl-1H-pyrrolo[2,3-b]pyridine-3-carbonitrile], the figures for the IC50 at LRRK2 G2019S and at LRRK2 WT were 58 nM and 48 nM, respectively.

Consider `Cc1cccc(-c2cc(Nc3ccn(C)n3)nc3[nH]cc(C#N)c23)c1` [Example 14, 4-(3-Methylphenyl)-6-[(1-methylpyrazol-3-yl)amino]-1H-pyrrolo[2,3-b]pyridine-3-carbonitrile], for which the IC50 at LRRK2 G2019S was 2 nM; at LRRK2 WT it was 1 nM.

On to `Cc1cc(-c2cc(Nc3ccn(C)n3)nc3[nH]cc(C#N)c23)ccc1CN1CCOCC1` [Example 15, 4-[3-Methyl-4-(morpholin-4-ylmethyl)phenyl]-6-[(1-methylpyrazol-3-yl)amino]-1H-pyrrolo[2,3-b]pyridine-3-carbonitrile], for which the IC50 on LRRK2 G2019S was determined as 1 nM; at LRRK2 WT, 4 nM.

Consider `Cn1cc(Nc2cc(-c3ccccc3)c3c(C#N)c[nH]c3n2)cn1` [Example 16, 6-[(1-Methylpyrazol-4-yl)amino]-4-phenyl-1H-pyrrolo[2,3-b]pyridine-3-carbonitrile], for which the concentration for half-maximal inhibition (IC50) came to 164 nM at LRRK2 G2019S and 97 nM on LRRK2 WT.

Consider `N#Cc1c[nH]c2nc(Nc3ccccn3)cc(-c3ccccc3)c12` [Example 17, 4-Phenyl-6-(pyridin-2-ylamino)-1H-pyrrolo[2,3-b]pyridine-3-carbonitrile], for which the values for the half-maximal inhibitory concentration (IC50) on LRRK2 G2019S and at LRRK2 WT were 527 nM and 340 nM, respectively.

Regarding `Cc1cncc(-c2cc(Nc3nn(C)cc3C(F)(F)F)nc3[nH]cc(C#N)c23)c1` [Example 18, 6-{[1-Methyl-4-(trifluoromethyl)-1H-pyrazol-3-yl]amino}-4-(5-methylpyridin-3-yl)-1H-pyrrolo[2,3-b]pyridine-3-carbonitrile], the results for the 50% inhibitory concentration (IC50) at LRRK2 G2019S and on LRRK2 WT were 509 nM and 358 nM, respectively.

Take `Cc1ccnc(-c2cc(Nc3nn(C)cc3Cl)nc3[nH]cc(C#N)c23)c1` [Example 19, 6-[(4-Chloro-1-methyl-1H-pyrazol-3-yl)amino]-4-(4-methylpyridin-2-yl)-1H-pyrrolo[2,3-b]pyridine-3-carbonitrile]: the IC50 is 215 nM on LRRK2 G2019S and 145 nM at LRRK2 WT.

On to `Cc1cccc(-c2cc(Nc3nn(C)cc3C)nc3[nH]cc(C#N)c23)n1` [Example 20, 6-[(1,4-Dimethyl-1H-pyrazol-3-yl)amino]-4-(6-methylpyridin-2-yl)-1H-pyrrolo[2,3-b]pyridine-3-carbonitrile], for which the half-inhibitory concentration (IC50) amounted to 50 nM at LRRK2 G2019S and 36 nM at LRRK2 WT.

Consider `Cc1cccc(-c2cc(Nc3nn(C)cc3C(F)(F)F)nc3[nH]cc(C#N)c23)n1` [Example 21, 6-{[1-Methyl-4-(trifluoromethyl)-1H-pyrazol-3-yl]amino}-4-(6-methylpyridin-2-yl)-1H-pyrrolo[2,3-b]pyridine-3-carbonitrile], for which the concentration for half-maximal inhibition (IC50) worked out at 575 nM at LRRK2 G2019S and 393 nM on LRRK2 WT.

Turning to `Cc1cncc(-c2cc(Nc3ccn(C)n3)nc3[nH]cc(C#N)c23)c1` [Example 22, 6-[(1-Methyl-1H-pyrazol-3-yl)amino]-4-(5-methylpyridin-3-yl)-1H-pyrrolo[2,3-b]pyridine-3-carbonitrile], the concentration for half-maximal inhibition (IC50) turned out to be 37 nM on LRRK2 G2019S and 27 nM at LRRK2 WT.

Take `Cc1cc(-c2cc(Nc3nn(C)cc3C)nc3[nH]cc(C#N)c23)ccn1` [Example 23, 6-[(1,4-Dimethyl-1H-pyrazol-3-yl)amino]-4-(2-methylpyridin-4-yl)-1H-pyrrolo[2,3-b]pyridine-3-carbonitrile]: the IC50 on LRRK2 G2019S came out at 108 nM; on LRRK2 WT it was 215 nM.
